Results as given in article PMC3849221 (NeuroImage, 2013).
Several values for one entry are separate records, joined by “and”; a condition that tells them apart may be missing. Identical values can stand only once. Entries after “also recorded” stand apart in the source; their conditions may differ.

Legend:
[1] = Pharmacological effects of injected 11C-SD5024 in healthy subjects; assay type: in vivo; details: human, injected mass dose 242±47 pmol/kg, n=7
[2] = biological target: CB1 receptors (Macaca mulatta, UniProt Q71SP5); assay: Monkey brain PET with 11C-SD5024, baseline and rimonabant pre-blocked scans; details: for VT Baseline: one value per monkey; for VT Preblocked: rimonabant 3 mg/kg i.v.
[3] = Lipophilicity LogD7.4; assay type: physicochemical; details: n-octanol / 0.15 M sodium phosphate buffer pH 7.4, room temperature, 6 measurements
[4] = biological target: CB1 receptor (Homo sapiens, UniProt P21554); assay: Human brain PET with 11C-SD5024, compartmental modeling; assay type: in vivo; details: for VT / K1 / k2 / vB (%): one-tissue compartment model, mean±SD; for VT: 120 min; for K1 / k2 / vB (%): seven subjects; for Intersubject Variability of VT (SD/mean): n=7, 120min
[5] = Measurement of 11C-SD5024 in human arterial plasma; assay type: in vivo
[6] = monkey striatum, calculated from caudate and putamen (Table 2)

Sequence of CB1 receptors (Q71SP5 whole entry): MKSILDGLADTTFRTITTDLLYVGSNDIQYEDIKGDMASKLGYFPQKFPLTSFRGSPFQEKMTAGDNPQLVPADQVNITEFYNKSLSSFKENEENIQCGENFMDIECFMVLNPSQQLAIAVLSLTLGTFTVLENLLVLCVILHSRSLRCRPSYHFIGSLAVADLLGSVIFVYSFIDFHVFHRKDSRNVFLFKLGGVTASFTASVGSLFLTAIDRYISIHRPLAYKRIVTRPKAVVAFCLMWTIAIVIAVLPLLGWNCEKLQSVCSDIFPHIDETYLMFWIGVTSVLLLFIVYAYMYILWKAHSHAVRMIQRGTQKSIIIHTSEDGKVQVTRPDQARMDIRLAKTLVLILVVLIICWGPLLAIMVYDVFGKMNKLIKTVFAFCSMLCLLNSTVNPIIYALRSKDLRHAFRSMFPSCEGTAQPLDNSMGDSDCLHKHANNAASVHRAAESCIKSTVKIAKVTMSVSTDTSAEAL
Sequence of CB1 receptor (P21554 whole entry): as the sequence (Q71SP5 whole entry) above

For `N#[11C]c1ccc(S(=O)(=O)NC(=N)N2CC(c3ccccc3)C(c3ccc(Cl)cc3)=N2)cc1` (stereo not drawn) [^11C-SD5024, [cyano-^11C](−)-3-(4-chlorophenyl)-N-[(4-cyanophenyl)sulfonyl]-4-phenyl-4,5-dihydro-1H-pyrazole-1-carboxamidine], the “pharmacological effects (subjective reports, vital signs, laboratory tests)” value [1] was “no pharmacological effects”, the “specific binding as proportion of VT” value ([2]; monkey brain, baseline vs receptor blockade with rimonabant 3 mg/kg i.v.) was ~ 80% and the “Specific binding (%)” value ([2]; monkey striatum, (VT baseline – VT preblock)/VT baseline) was 82%. The “VT (striatum) Baseline” value [2, 6] was 2.36 mL·cm^−3, the “VT (striatum) Preblocked” value [2, 6] was 0.44 mL·cm^−3 and the “Specific binding (%)” value ([2]; monkey, Caudate, (VT baseline – VT preblocked)/VT baseline) was 82% and 79%. For the same molecule, the “VT Baseline” value ([2]; monkey, Caudate) was 1.62 mL · cm^−3 and 2.79 mL · cm^−3, the “VT Preblocked” value ([2]; monkey, Caudate) was 0.30 mL · cm^−3 and 0.60 mL · cm^−3 and the “Specific binding (%)” value ([2]; monkey, Cerebellum, (VT baseline – VT preblocked)/VT baseline) was 79% and 78%. The “VT Baseline” value ([2]; monkey, Cerebellum) was 1.27 mL · cm^−3 and 2.34 mL · cm^−3, the “VT Preblocked” value ([2]; monkey, Cerebellum) was 0.27 mL · cm^−3 and 0.51 mL · cm^−3 and the “Specific binding (%)” value ([2]; monkey, Cingulate, (VT baseline – VT preblocked)/VT baseline) was 84% and 82%. The “VT Baseline” value ([2]; monkey, Cingulate) was 1.74 mL · cm^−3 and 3.58 mL · cm^−3, the “Specific binding (%)” value ([2]; monkey, Frontal Ctx, (VT baseline – VT preblocked)/VT baseline) was 79% and 72% and the “VT Baseline” value ([2]; monkey, Frontal Ctx) was 1.77 mL · cm^−3 and 3.13 mL · cm^−3. For the same molecule, the “Specific binding (%)” value ([2]; monkey, Lateral Temporal Ctx, (VT baseline – VT preblocked)/VT baseline) was 81% and 77%, the “VT Baseline” value ([2]; monkey, Lateral Temporal Ctx) was 1.32 mL · cm^−3 and 2.52 mL · cm^−3 and the “Specific binding (%)” value ([2]; monkey, Medial Temporal Ctx, (VT baseline – VT preblocked)/VT baseline) was 71%. The “VT Baseline” value ([2]; monkey, Medial Temporal Ctx) was 1.33 mL · cm^−3 and 2.54 mL · cm^−3, the “VT Preblocked” value ([2]; monkey, Medial Temporal Ctx) was 0.39 mL · cm^−3 and 0.75 mL · cm^−3 and the “Specific binding (%)” value ([2]; monkey, Occipital Ctx, (VT baseline – VT preblocked)/VT baseline) was 78% and 71%. For the same molecule, the “VT Baseline” value ([2]; monkey, Occipital Ctx) was 1.07 mL · cm^−3 and 2.00 mL · cm^−3, the “Specific binding (%)” value ([2]; monkey, Parietal Ctx, (VT baseline – VT preblocked)/VT baseline) was 81% and 74% and the “VT Baseline” value ([2]; monkey, Parietal Ctx) was 1.39 mL · cm^−3 and 2.70 mL · cm^−3. For the same molecule, the “Specific binding (%)” value ([2]; monkey, Putamen, (VT baseline – VT preblocked)/VT baseline) was 83% and 81%, the “VT Baseline” value ([2]; monkey, Putamen) was 1.84 mL · cm^−3 and 3.04 mL · cm^−3 and the “VT Preblocked” value ([2]; monkey, Putamen) was 0.31 mL · cm^−3 and 0.56 mL · cm^−3. The “Specific binding (%)” value ([2]; monkey, Thalamus, (VT baseline – VT preblocked)/VT baseline) was 64% and 68%, the “VT Baseline” value ([2]; monkey, Thalamus) was 0.83 mL · cm^−3 and 1.85 mL · cm^−3 and the “VT Preblocked” value ([2]; monkey, Thalamus) was 0.30 mL · cm^−3 and 0.59 mL · cm^−3. The “time of peak brain activity” value ([2]; monkey, baseline) was ~ 60 min, the “brain activity (peak)” value ([2]; monkey, baseline, after i.v. injection) was ~ 2 SUV and the “average SE of VT across brain regions (identifiability)” value ([2]; monkey, one-compartment model) was 3.8%. For the same molecule, the LogD7.4 [3] was 3.79±0.09, the “decrease of brain radioactivity from peak time (40 min) to end of scan (120 min)” value [4] was 20% and the “time of peak brain activity” value [4] was ~ 40 min. For the same molecule, the VT ([4]; Caudate, n=7) was 2.31±0.55 mL·cm^−3, the K1 ([4]; Caudate) was 0.028±0.005 mL/cm^3/min and the k2 ([4]; Caudate) was 0.013 ± 0.003 min⁻¹. The “vB (%)” value ([4]; Caudate) was 3.7±0.67%, the VT ([4]; Cerebellum, n=7) was 1.93±0.38 mL·cm^−3 and the K1 ([4]; Cerebellum) was 0.030±0.006 mL/cm^3/min. For the same molecule, the k2 ([4]; Cerebellum) was 0.016 ± 0.003 min⁻¹, the “vB (%)” value ([4]; Cerebellum) was 6.4±0.69% and the VT ([4]; Cingulate, n=7) was 2.79±0.58 mL·cm^−3. The K1 ([4]; Cingulate) was 0.029±0.006 mL/cm^3/min, the k2 ([4]; Cingulate) was 0.011 ± 0.002 min⁻¹ and the “vB (%)” value ([4]; Cingulate) was 5.0±0.58%. The “Intersubject Variability of VT (SD/mean)” value ([4]; Frontal) was 21%, the VT ([4]; Frontal, n=7) was 2.57±0.54 mL·cm^−3 and the K1 ([4]; Frontal) was 0.032±0.006 mL/cm^3/min. The k2 ([4]; Frontal) was 0.013 ± 0.003 min⁻¹, the “vB (%)” value ([4]; Frontal) was 4.4±0.66% and the VT ([4]; Lateral temporal, n=7) was 2.66±0.57 mL·cm^−3. The K1 ([4]; Lateral temporal) was 0.032±0.007 mL/cm^3/min, the k2 ([4]; Lateral temporal) was 0.012 ± 0.002 min⁻¹ and the “vB (%)” value ([4]; Lateral temporal) was 5.2±0.64%. For the same molecule, the VT ([4]; Medial temporal, n=7) was 2.48±0.65 mL·cm^−3, the K1 ([4]; Medial temporal) was 0.023±0.005 mL/cm^3/min and the k2 ([4]; Medial temporal) was 0.010 ± 0.002 min⁻¹. The “vB (%)” value ([4]; Medial temporal) was 5.3±0.58%, the VT ([4]; Occipital, n=7) was 2.00±0.38 mL·cm^−3 and the K1 ([4]; Occipital) was 0.035±0.007 mL/cm^3/min. The k2 ([4]; Occipital) was 0.018 ± 0.003 min⁻¹, the “vB (%)” value ([4]; Occipital) was 5.9±0.49% and the VT ([4]; Parietal, n=7) was 2.44±0.50 mL·cm^−3. For the same molecule, the K1 ([4]; Parietal) was 0.034±0.006 mL/cm^3/min, the k2 ([4]; Parietal) was 0.014 ± 0.003 min⁻¹ and the “vB (%)” value ([4]; Parietal) was 4.8±0.50%. For the same molecule, the “Intersubject Variability of VT (SD/mean)” value ([4]; Putamen) was 22%, the VT ([4]; Putamen, n=7) was 3.16±0.70 mL·cm^−3 and the K1 ([4]; Putamen) was 0.038±0.008 mL/cm^3/min. For the same molecule, the k2 ([4]; Putamen) was 0.012 ± 0.003 min⁻¹, the “vB (%)” value ([4]; Putamen) was 4.0±0.79% and the “peak brain uptake of 11C-SD5024 higher than that of 11C-OMAR by” value ([4]; Table 5) was “about 40%”. For the same molecule, the “peak brain uptake of 11C-SD5024 lower than that of 11C-MePPEP by” value ([4]; Table 5) was “about 20%”, the “peak brain uptake of 11C-SD5024 relative to 11C-OMAR” value ([4]; Table 5) was ~ 1.4 times and the “VT of 11C-SD5024 relative to 11C-OMAR” value ([4]; Table 6) was “about twice higher; also recorded: about two-fold greater; also recorded: about twice greater”. The “Intersubject Variability of VT (SD/mean)” value ([4]; Thalamus) was 24%, the VT ([4]; Thalamus, n=7) was 1.71±0.41 mL·cm^−3 and the K1 ([4]; Thalamus) was 0.029±0.006 mL/cm^3/min. The k2 ([4]; Thalamus) was 0.017 ± 0.004 min⁻¹, the “vB (%)” value ([4]; Thalamus) was 4.6±0.49% and the “accumulation of radiometabolites in brain” value ([4]; from time stability of VT) was “do not significantly accumulate in brain”. For the same molecule, the “intersubject variability for VT (Table 6)” value ([4]; n=7) was ~ 24%, the “intersubject variability of VT, average value” ([4]; n=7) was 22% and the “average SE of VT across brain regions (identifiability)” value ([4]; one-compartment model) was 1.8%. The “scan duration adequate to measure VT / CB1 receptors” value ([4]; truncation of the 120-min scan) was 80 min, the “free fraction in plasma (fP)” value [5] was “too low to measure accurately” and the “time of peak concentration in arterial plasma” value [5] was 75 s. The “peak concentration in arterial plasma” value ([5]; after i.v. injection) was 24±8 SUV, the “fraction of parent as percentage of total plasma radioactivity” value ([5]; at 75 min) was 51±13% and the “plasma concentrations of 11C-SD5024 relative to 11C-MePPEP” value ([5]; from 30 to 120 min) was “five-times”.
